What was measured:
[1] = tested on: DNA AP site (AP site containing DNA, oligo 15); assay: Fluorescence response of probe covalently attached to the AP site of a DNA hairpin; format: biochemical
Protocol: FIG. 2B provides emission spectra of oligonucleotide-probe conjugates compared to the emission spectra of the free probe at 2 μM concentration in 50 mM Tris buffer pH 7.0. Excitation was at 470 nm for Compound (1) (also referred to herein as CCVJ1) and 450 nm for Compounds 8 and 9 (also referred to herein as NP1 and NP2) and Compounds 4 and 6 (also referred to herein as BD1 and BD2).
To assess the potential fluorescence response of each probe, a 17mer DNA hairpin containing a single AP site was prepared and reacted it with a 10-fold excess of probe overnight. The subsequent DNA-probe conjugates were precipitated to remove excess fluorophore and full DNA labelling was confirmed by MALDI-TOF mass spectrometry (Table 1). The reacted DNAs were re-suspended in buffer to a concentration of 2 μM and the emission spectra compared with the spectra of the free probes in solution. […] In addition to its large fluorescence response, CCVJ1 is accessed readily through a facile 4-step synthesis and has good spectral overlap with fluorescein. This makes the probe accessible to a wide range of researchers and well suited to the majority of fluorescence-based instruments.
In addition to the 5′ and 3′ neighboring bases, studies were done of the effect of the orphaned base Z paired opposite the abasic site on the UBER probe system (FIG. 10, panels C-D). Using the sequence where X=C and Y=G, the identity was varied of the base Z opposite the AP site. […] As a result, the smaller pyrimidine bases yielded a greater fluorescence light up response than the larger purine bases. It was also observed a strong effect by the opposing base on the rate of oxime formation (FIG. 10, panel D). […] This trend is in contrast to the neighboring base effect discussed above in which stronger stacking bases accelerated the rate of oxime formation.
General procedure for creating AP site DNA: A deoxyuridine containing oligonucleotide (typically 5-20 μM) was treated with 10 U/mL E. coli UDG (New England Biolabs) for 10 minutes at 37° C. in buffer to create AP site containing DNA (see below for MALDI-TOF confirmation). The hairpin was then reacted with probe from a DMSO stock solution (final DMSO concentration <5%).
Procedure for assessing fluorescence response of probes: To assess the fluorescence response of the probes, 25 μM AP site containing DNA (oligo 15) was prepared in a 20 μL solution and allowed to react with 500 μM of each probe overnight. The DNA was then precipitated by the addition of 80 μL 0.33 M sodium acetate and 300 μL ethanol and centrifuged at 21,100 g for 1 hr at 4° C. The resulting DNA pellet was washed twice with 70% EtOH and re-suspended in buffer to a concentration of 2 μM. A portion of the DNA pellet was used for MALDI-TOF analysis. The emission spectra of the probe-oligonucleotide conjugate was measured and compared against a 2 μM solution of the free probe

[2] = tested on: non-lesion containing DNA hairpin (undamaged double stranded DNA); assay: Fluorescence of probe with non-lesion DNA hairpin (non-covalent); format: binding; settings: 5 μM probe, 20 μM DNA; over free probe
Protocol: (§1) FIG. 9 provides interaction between Compound (1) (CCVJ1) and DNA. […] (Ex. 485, Em. 538).
(§2) To further explore the hypothesis that the oxime rate acceleration in these AP-site DNAs was related to base stacking interactions, the fluorescence was measured of CCVJ1 in the presence and absence of a non-lesion containing DNA hairpin.

AP site-containing DNA = assay: Competition for oxime formation between CCVJ1 and AP site-containing DNA; format: biochemical
Protocol: FIG. 6 provides effect of adding exemplary linker NH2CH2CH2ONH2 to the reaction of Compound (1) (CCVJ1) (5 μM) with AP site containing DNA (20 μM) in buffer.
as §1
FIG. 14 provides effect of competing aldehydes/ketones on maximum fluorescence signal.
Additional experiments were performed to study the origins of this unusually rapid reaction. […] To test the effect that proximity between the alkoxyamine and planar portion of the probe had on oxime kinetics in our probes, probes were synthesized having variable-length linkers (CCVJ2 and CCVJ3) from aldehyde reactive linkers L2 and L3 respectively (FIG. 2A). […] To test the importance of a double-stranded DNA structure to the rate and fluorescence response, an AP-containing single-stranded DNA oligonucleotide was reacted with CCVJ1. At pH 7, CCVJ1 reacted with a second-order rate constant of 33 M^−1s^−1 with the single-stranded substrate, roughly 5-fold slower than a double-stranded hairpin with identical sequence context (FIG. 8).
as §2
Since the probe design involves conformational restriction to induce a light-up signal, it was hypothesized that off-target oxime formation with small molecules might induce a relatively small signal relative to DNA, thus providing a measure of selectivity in signaling. […] Another potential aspect is that ketones or aldehydes in the environment might compete with the DNA AP site to react with the aminooxy group, thereby consuming the free probe and reducing the maximum signal. Initial testing of the reactivity of CCVJ1 with AP site-containing DNA in the presence of increasing amounts of competing 2-deoxyribose, the closest small-molecule analogue to the DNA AP site. […] This was repeated this experiment with pyruvic acid, a highly reactive ketone and a common cellular metabolite.

[3] = Absorption spectra of free and AP site bound probe; format: physicochemical; settings: in buffer
Excerpt: FIG. 24 provides normalized absorption spectra of free Compound (1) (CCJV1 probe) and AP site bound probe in buffer. Oxime formation with the AP site red shifts absorption from a λmax of 454 nm in the unbound probe to a λmax of 468 nm in the bound probe. The extinction coefficient calculated for the unbound probe is 30,400 M^−1·cm^−1 and 28,700 M^−1·cm^−1 for the bound probe.
Instrumentation: NMR spectra were acquired on a Varian Inova 400 (400 MHz) or 500 (500 MHz) spectrometer and chemical shift reported in parts per million (6) relative to internal standard TMS (0 ppm). Small molecule mass spectra were measured on a Waters 2795 system via electrospray ionization (ESI) with a ZQ single quadrupole MS. Oligonucleotide mass spectra were acquired by MALDI-TOF using a Bruker Microflex MALDI-TOF in negative ion mode. Ultraviolet spectra were measured on a Cary 300. Fluorescence emission and excitation spectra were recorded on a Jobin Yvon-Spex Fluorolog 3 spectrometer with an external temperature controller. Fluorescence time courses were collected on a Fluoroskan Ascent Microplate Fluorometer (Thermo Fisher Scientific). Oligonucleotide concentrations were determined by UV-absorption on a NanoDrop One Microvolume UV-Vis Spectrophotometer (ThermoFisher Scientific). DNA synthesis was carried out on an Applied Biosystems 394 DNA/RNA synthesizer.

N#C/C(=C\c1cc2c3c(c1)CCCN3CCC2)C(=O)NCCON [CCVJ1]
increase in fluorescence when bound to the AP site vs free probe ([1]; 17mer hairpin conjugate 2 μM vs free probe): 256 fold | overall increase in fluorescence relative to the probe alone, optimal neighboring bases ([1]; AP hairpin X=C, Y=G, Z=C): 508 fold | fluorescence light up response (summary) ([1]; relative to the unbound probe): 250-500 fold | increase in fluorescence intensity upon addition of non-lesion DNA hairpin [2]: ~2.5 fold | effect of equimolar pseudo AP DNA on rate of apparent oxime formation (AP site-containing DNA; 20 μM pseudo AP hairpin, 20 μM AP DNA, 5 μM CCVJ1): no effect on the rate of apparent oxime formation | effect of competing 2-deoxyribose on maximum signal (AP site-containing DNA; 1 mM deoxyribose (200 equivalents)): no effect on the maximum signal | signal retained compared to the AP DNA alone (AP site-containing DNA; 4 mM deoxyribose (800 equivalents)): 85% | effect of competing pyruvate on overall signal (AP site-containing DNA; up to 200 μM pyruvate (40 equivalents)): no significant reduction in overall signal | absorption λmax, AP site bound probe [3]: 468 nm | absorption λmax, unbound probe [3]: 454 nm | extinction coefficient, bound probe [3]: 28,700 M^−1·cm^−1 | extinction coefficient, unbound probe [3]: 30,400 M^−1·cm^−1

Source: patent US20210147932A1, “FLUORESCENT PROBES FOR QUANTIFICATION OF DNA DAMAGE AND REPAIR” (The Board of Trustees of the Leland Stanford Junior …, priority 2019, published 2021)
